The results in this text go back to patent US9670227B2, “Thienopyrimidine derivatives, a process for their preparation and pharmaceutical compositions containing them” (LES LABORATOIRES SERVIER, priority 2013, dated 2017).

For test [1], the system named is H929 multiple myeloma tumour line. Briefly: In vitro cytotoxicity, Microculture Tetrazolium Assay. As to conditions: H929 cells, 48 hours exposure, MTT, read-out: IC50 (μM) MTT H929. The test is classed as cell-based. As for the experimental part: The cytotoxicity studies were carried out on the H929 multiple myeloma tumour line.
The cells are distributed onto microplates and exposed to the test compounds for 48 hours.

The target of another test is Mcl-1 protein (UniProtKB primary accession number: Q07820) (Homo sapiens, UniProt Q07820). Description: Inhibition of Mcl-1 by fluorescence polarisation, Method 1. Format: binding. The settings on record: read-out: IC50 (M) Mcl-1 FP. The procedure, abridged:
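Compounds were tested as 11-point serial dilutions at 5% final DMSO against 5 nM Mcl-1 with 1 nM fluorescein-labelled ligand in 10 mM HEPES, 150 mM NaCl, 0.05% Tween 20, pH 7.4. Relative binding potency was read by fluorescence polarisation.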
For orientation: Polarisation of emitted light reports the rotation of a fluorescent probe.

[2] abbreviates: fluorescence polarisation, Method 1, or Method 2.
Where [3] appears, read: fluorescence polarisation test, Method 2 values are underlined in the patent (underlining not visible here).

Read-outs that look alike come from different tables or passages of the source.

Chain of Mcl-1 protein (Q07820 whole entry): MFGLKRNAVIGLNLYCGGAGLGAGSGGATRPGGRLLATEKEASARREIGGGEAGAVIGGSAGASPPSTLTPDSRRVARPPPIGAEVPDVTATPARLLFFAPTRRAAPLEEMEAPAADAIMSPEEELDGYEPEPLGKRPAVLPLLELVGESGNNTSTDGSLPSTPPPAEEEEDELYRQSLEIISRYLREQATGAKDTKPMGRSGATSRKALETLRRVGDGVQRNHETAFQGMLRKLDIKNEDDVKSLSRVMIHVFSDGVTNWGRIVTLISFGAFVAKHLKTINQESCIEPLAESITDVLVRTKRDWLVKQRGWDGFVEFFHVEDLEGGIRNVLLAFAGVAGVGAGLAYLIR

The term IC50 denotes the concentration that inhibits the measured activity by half. Take `COc1ccc(-c2nccc(COc3ccccc3CC(Oc3ncnc4sc(-c5ccc(F)cc5)c(-c5ccc(OCCN6CCN(C)CC6)c(Cl)c5C)c34)C(=O)O)n2)c(OC)c1` [Example 733, (2R)-2-{[(5Sa)-5-{3-chloro-2-methyl-4-[2-(4-methylpiperazin-1-yl)ethoxy]phenyl}-6-(4-fluorophenyl)thieno[2,3-d]pyrimidin-4-yl]oxy}-3-(2-{[2-(2,4-dimethoxyphenyl)pyrimidin-4-yl]methoxy}phenyl)propanoic acid]: the IC50 in test [1] (Homo sapiens, NCI-H929, 48 h) was 0.005 µM; at Mcl-1 protein (setting [2]) it was 9.48e-10 M.

Consider `CCN1CCN(CCOc2ccc(-c3c(-c4ccc(F)cc4)sc4ncnc(OC(Cc5ccccc5OCc5ccnc(-c6ccccc6F)n5)C(=O)O)c34)c(C)c2Cl)CC1` [Example 745, (2R)-2-{[(5Sa)-5-{3-chloro-4-[2-(4-ethylpiperazin-1-yl)ethoxy]-2-methylphenyl}-6-(4-fluorophenyl)thieno[2,3-d]pyrimidin-4-yl]oxy}-3-(2-{[2-(2-fluorophenyl)pyrimidin-4-yl]methoxy}phenyl)propanoic acid], for which the IC50 in test [1] (Homo sapiens, NCI-H929, 48 h) is 0.003 µM; on Mcl-1 protein (setting [2]), 9.48e-10 M.

Take `Cc1cc(-c2nccc(COc3ccccc3C[C@@H](Oc3ncnc4sc(-c5ccc(F)cc5)c(-c5ccc(OCCN6CCN(C)CC6)c(Cl)c5C)c34)C(=O)O)n2)cnc1C` [Example 732, (2R)-2-{[(5Sa)-5-{3-chloro-2-methyl-4-[2-(4-methylpiperazin-1-yl)ethoxy]phenyl}-6-(4-fluorophenyl)thieno[2,3-d]pyrimidin-4-yl]oxy}-3-(2-{[2-(5,6-dimethylpyridin-3-yl)pyrimidin-4-yl]methoxy}phenyl)propanoic acid]: the IC50 is 0.013 µM in test [1] and 1.27e-09 M at Mcl-1 protein (setting [2]).

Regarding `Cc1c(-c2c(-c3ccc(F)cc3)sc3ncnc(OC(Cc4ccccc4OCc4ccnc(Cc5ccccc5)n4)C(=O)O)c23)ccc(OCCN2CCN(C)CC2)c1Cl` [Example 40, (2R)-3-{2-[(2-benzylpyrimidin-4-yl)methoxy]phenyl}-2-{[(5Sa)-5-{3-chloro-2-methyl-4-[2-(4-methylpiperazin-1-yl)ethoxy]phenyl}-6-(4-fluorophenyl)thieno[2,3-d]pyrimidin-4-yl]oxy}propanoic acid], the IC50 was 0.008 µM in test [1] (Homo sapiens, NCI-H929, 48 h) and 5.6e-09 M on Mcl-1 protein (setting [3]).

In the case of `COc1ccccc1CC(Oc1ncnc2sc(-c3ccc(F)o3)c(-c3ccc(OCCN(C)C)c(Cl)c3C)c12)C(=O)O` [Example 199, (2R)-2-{[(5Sa)-5-{3-chloro-4-[2-(dimethylamino)ethoxy]-2-methylphenyl}-6-(5-fluorofuran-2-yl)thieno[2,3-d]pyrimidin-4-yl]oxy}-3-(2-methoxyphenyl)propanoic acid], the IC50 amounted to 0.28 µM in test [1] (Homo sapiens, NCI-H929, 48 h) and 6.6e-09 M on Mcl-1 protein (setting [3]).

As to `CC#Cc1sc2ncnc(OC(Cc3cccc4occc34)C(=O)O)c2c1-c1ccc(OCCN2CCN(C)CC2)c(Cl)c1C` [Example 492, (2R)-3-(1-benzofuran-4-yl)-2-{[(5Sa)-5-{3-chloro-2-methyl-4-[2-(4-methylpiperazin-1-yl)ethoxy]phenyl}-6-(prop-1-yn-1-yl)thieno[2,3-d]pyrimidin-4-yl]oxy}propanoic acid], the IC50 in test [1] (Homo sapiens, NCI-H929, 48 h) was 2.19 µM; at Mcl-1 protein (setting [2]), 9e-08 M.

On to `Cc1c(-c2c(-c3ccc(F)cc3)sc3ncnc(OC(Cc4ccccc4OCc4cnccn4)C(=O)O)c23)ccc(OCC2CCN(C)C2)c1Cl` [Example 145, (2R)-2-{[(5Sa)-5-{3-chloro-2-methyl-4-[(1-methylpyrrolidin-3-yl)methoxy]phenyl}-6-(4-fluorophenyl)thieno[2,3-d]pyrimidin-4-yl]oxy}-3-[2-(pyrazin-2-ylmethoxy)phenyl]propanoic acid], for which the IC50 in test [1] is 0.293 µM; on Mcl-1 protein (setting [3]), 1.1e-08 M.

Take `Cc1c(-c2c(-c3ccc(F)cc3)sc3ncnc(OC(Cc4ccccc4OCc4ccnc(-c5ccccc5C(F)(F)F)n4)C(=O)O)c23)ccc(OCCN2CCN(C)CC2)c1Cl` [Example 727, (2R)-2-{[(5Sa)-5-{3-chloro-2-methyl-4-[2-(4-methylpiperazin-1-yl)ethoxy]phenyl}-6-(4-fluorophenyl)thieno[2,3-d]pyrimidin-4-yl]oxy}-3-[2-({2-[2-(trifluoromethyl)phenyl]pyrimidin-4-yl}methoxy)phenyl]propanoic acid]: the concentration for half-maximal inhibition (IC50) turned out to be 0.013 µM in test [1] (Homo sapiens, NCI-H929, 48 h) and 1.32e-09 M on Mcl-1 protein (setting [2]).

With `CC#Cc1sc2ncnc(OC(Cc3ccccc3OC)C(=O)O)c2c1-c1ccc(OCCN2CCCC2)c(Cl)c1C` [Example 468, (2R)-2-{[(5Sa)-5-{3-chloro-2-methyl-4-[2-(pyrrolidin-1-yl)ethoxy]phenyl}-6-(prop-1-yn-1-yl)thieno[2,3-d]pyrimidin-4-yl]oxy}-3-(2-methoxyphenyl)propanoic acid], the IC50 came to 2.02 µM in test [1] (Homo sapiens, NCI-H929, 48 h) and 8.6e-09 M at Mcl-1 protein (setting [2]).

As to `Cc1c(-c2c(-c3ccc(F)cc3)sc3ncnc(OC(Cc4ccccc4OCc4ccnn4CCCC(F)(F)F)C(=O)O)c23)ccc(OCCN2CCN(C)CC2)c1Cl` [Example 84, (2R)-2-{[(5Sa)-5-{3-chloro-2-methyl-4-[2-(4-methylpiperazin-1-yl)ethoxy]phenyl}-6-(4-fluorophenyl)thieno[2,3-d]pyrimidin-4-yl]oxy}-3-(2-{[1-(4,4,4-trifluorobutyl)-1H-pyrazol-5-yl]methoxy}phenyl)propanoic acid], the half-inhibitory concentration (IC50) stood at 0.018 µM in test [1] (Homo sapiens, NCI-H929, 48 h) and 3.8e-09 M at Mcl-1 protein (setting [3]).

For the molecule `Cc1c(-c2c(-c3ccc(F)cc3)sc3ncnc(OC(Cc4ccccc4OCc4cnccn4)C(=O)O)c23)ccc(OCCN(C)C)c1Cl` [Example 134, (2R)-2-{[(5Sa)-5-{3-chloro-4-[2-(dimethylamino)ethoxy]-2-methylphenyl}-6-(4-fluorophenyl)thieno[2,3-d]pyrimidin-4-yl]oxy}-3-[2-(pyrazin-2-ylmethoxy)phenyl]propanoic acid], the half-maximal inhibitory concentration (IC50) in test [1] (Homo sapiens, NCI-H929, 48 h) stood at 0.193 µM; on Mcl-1 protein (setting [3]), 1.3e-08 M.

As to `CCOCCn1nccc1COc1ccccc1CC(Oc1ncnc2sc(-c3ccc(F)cc3)c(-c3ccc(OCCN4CCN(C)CC4)c(Cl)c3C)c12)C(=O)O` [Example 89, (2R)-2-{[(5Sa)-5-{3-chloro-2-methyl-4-[2-(4-methylpiperazin-1-yl)ethoxy]phenyl}-6-(4-fluorophenyl)thieno[2,3-d]pyrimidin-4-yl]oxy}-3-(2-{[1-(2-ethoxyethyl)-1H-pyrazol-5-yl]methoxy}phenyl)propanoic acid], the IC50 in test [1] (Homo sapiens, NCI-H929, 48 h) came to 0.027 µM; at Mcl-1 protein (setting [3]) it was 6.5e-09 M.

Regarding `Cc1c(-c2c(-c3ccc(F)cc3)sc3ncnc(OC(Cc4ccccc4OCc4ccnc(-c5ccccc5OCc5ccccc5)n4)C(=O)O)c23)ccc(OCCN2CCN(C)CC2)c1Cl` [Example 725, (2R)-3-[2-({2-[2-(benzyloxy)phenyl]pyrimidin-4-yl}methoxy)phenyl]-2-{[(5Sa)-5-{3-chloro-2-methyl-4-[2-(4-methylpiperazin-1-yl)ethoxy]phenyl}-6-(4-fluorophenyl)thieno[2,3-d]pyrimidin-4-yl]oxy}propanoic acid], the half-inhibitory concentration (IC50) is 0.01 µM in test [1] (Homo sapiens, NCI-H929, 48 h) and 1.46e-09 M at Mcl-1 protein (setting [2]).

`CNC(=O)COc1ccccc1CC(Oc1ncnc2sc(-c3ccc(F)o3)c(-c3ccc(OCCN4CCN(C)CC4)c(Cl)c3C)c12)C(=O)O` [Example 151, (2R)-2-{[(5Sa)-5-{3-chloro-2-methyl-4-[2-(4-methylpiperazin-1-yl)ethoxy]phenyl}-6-(5-fluorofuran-2-yl)thieno[2,3-d]pyrimidin-4-yl]oxy}-3-{2-[2-(methylamino)-2-oxoethoxy]phenyl}propanoic acid]: the IC50 came out at 0.309 µM in test [1] (Homo sapiens, NCI-H929, 48 h) and 3.6e-09 M on Mcl-1 protein (setting [3]).

Regarding `COc1ccccc1CC(Oc1ncnc2sc(-c3cc4sccc4s3)c(-c3ccc(OCCN4CCN(C)CC4)c(Cl)c3C)c12)C(=O)O` [Example 530, (2R)-2-{[(5Sa)-5-{3-chloro-2-methyl-4-[2-(4-methylpiperazin-1-yl)ethoxy]phenyl}-6-(thieno[3,2-b]thiophen-2-yl)thieno[2,3-d]pyrimidin-4-yl]oxy}-3-(2-methoxyphenyl)propanoic acid], the IC50 in test [1] (Homo sapiens, NCI-H929, 48 h) came to 1.59 µM; at Mcl-1 protein (setting [2]) it was 1.2e-07 M.

As for `COc1cc(F)ccc1CC(Oc1ncnc2sc(-c3ccc(Cl)o3)c(-c3ccc(OCCN4CCN(C)CC4)c(Cl)c3C)c12)C(=O)O` [Example 718, (2R)-2-{[6-(5-chlorofuran-2-yl)-(5Sa)-5-{3-chloro-2-methyl-4-[2-(4-methylpiperazin-1-yl)ethoxy]phenyl}thieno[2,3-d]pyrimidin-4-yl]oxy}-3-(4-fluoro-2-methoxyphenyl)propanoic acid], the IC50 in test [1] (Homo sapiens, NCI-H929, 48 h) amounted to 0.082 µM; on Mcl-1 protein (setting [2]), 1.2e-08 M.

Turning to `Cc1c(-c2c(-c3ccco3)sc3ncnc(OC(Cc4ccccc4OCc4ccccc4)C(=O)O)c23)ccc(OCCN2CCN(C)CC2)c1Cl` [Example 240, (2R)-3-[2-(benzyloxy)phenyl]-2-{[(5Sa)-5-{3-chloro-2-methyl-4-[2-(4-methylpiperazin-1-yl)ethoxy]phenyl}-6-(furan-2-yl)thieno[2,3-d]pyrimidin-4-yl]oxy}propanoic acid], the IC50 in test [1] (Homo sapiens, NCI-H929, 48 h) was found to be 0.225 µM; at Mcl-1 protein (setting [3]), 7.2e-09 M.

As to `CCCCn1nccc1COc1ccccc1CC(Oc1ncnc2sc(-c3ccc(-c4ccc(Cl)nc4)nc3)c(-c3ccc(OCCN4CCN(C)CC4)c(Cl)c3C)c12)C(=O)O` [Example 605, (2R)-3-{2-[(1-butyl-1H-pyrazol-5-yl)methoxy]phenyl}-2-{[6-(6′-chloro-2,3′-bipyridin-5-yl)-(5Sa)-5-{3-chloro-2-methyl-4-[2-(4-methylpiperazin-1-yl)ethoxy]phenyl}thieno[2,3-d]pyrimidin-4-yl]oxy}propanoic acid], the half-maximal inhibitory concentration (IC50) is 0.254 µM in test [1] (Homo sapiens, NCI-H929, 48 h) and 8.2e-09 M on Mcl-1 protein (setting [2]).
